Results taken from US9234168B2, “Compositions containing amino acids, phosphate and manganese and their uses” (The Henry M. Jackson Foundation for the Advancement of …, priority 2010, dated 2016).

What was measured:
E. coli = format: cell-based, Escherichia coli; details: 3 kGy; TGY supplemented with 1 μM Mn^2+, 13 mM phosphate, 3 mM uridine or 384 mM (3%) DMSO individually
Method: FIG. 3 depicts the survival curves of E. coli exposed to acute IR and grown in the presence of various supplements: TGY, standard peptide-rich growth medium; DMSO, dimethyl sulfoxide; UMnP, 3 mM uridine/1 μM Mn^2+/13 mM PiB (phosphate buffer).
Individually and in combination, the radioprotective properties of Mn^2+, phosphate, uridine and DMSO were determined using E. coli grown in TGY medium; TGY is a peptide-rich medium based on yeast extract, and contains approximately 200 nM Mn.

bacterial cell culture = test: Radioprotection of a bacterial cell culture; format: cell-based; details: agent alone
Excerpt: (§1) Applicants have shown that adenosine alone and Mn(II) alone are radioprotective […] for a mammalian cell line and for a bacterial cell culture.

mammalian cell line = test: Radioprotection of a mammalian cell line; format: cell-based; details: agent alone
Excerpt: as §1

| Compound | increase of the resistance of E. coli (E. coli) | radioprotection of a bacterial cell culture (bacterial cell culture) | radioprotection of a mammalian cell line (mammalian cell line) |
| --- | --- | --- | --- |
| C[S+](C)[O-] [DMSO, dimethyl sulfoxide] | 50 times | – | – |
| [Mn+2] [Mn^2+] | did not increase the resistance | radioprotective | radioprotective |
| Nc1ncnc2c1ncn2[C@@H]1O[C@H](CO)[C@@H](O)[C@H]1O [adenosine] | – | radioprotective | radioprotective |
| O=c1ccn([C@@H]2O[C@H](CO)[C@@H](O)[C@H]2O)c(=O)[nH]1 [uridine] | 50 times | – | – |
| phosphate | 800 times | – | – |
